Calls of active or inactive are those of the source. No cut-off for these calls is given here.
Assays:
[1] = biological target: Acetylcholinesterase (Homo sapiens, UniProt P22303); assay: Mixed type non-competitive inhibition of human erythrocyte AChE using acetylthiocholine iodide as substrate assessed as dissociation constant by dixon plot analysis
[2] = Neurotoxicity in human SH-SY5Y cells assessed as reduction in cell population at 80 uM incubated for 24 hrs by MTT assay
[3] = biological target: Amyloid-beta precursor protein (Homo sapiens) (UniProt P05067); assay: Inhibition of amyloid beta (1 to 42) (unknown origin) aggregation assessed as appearance of thinner aggregates at 50 uM incubated for 48 hrs by TEM imaging analysis
Amyloid-beta precursor protein (Homo sapiens), sequence (P05067 whole entry): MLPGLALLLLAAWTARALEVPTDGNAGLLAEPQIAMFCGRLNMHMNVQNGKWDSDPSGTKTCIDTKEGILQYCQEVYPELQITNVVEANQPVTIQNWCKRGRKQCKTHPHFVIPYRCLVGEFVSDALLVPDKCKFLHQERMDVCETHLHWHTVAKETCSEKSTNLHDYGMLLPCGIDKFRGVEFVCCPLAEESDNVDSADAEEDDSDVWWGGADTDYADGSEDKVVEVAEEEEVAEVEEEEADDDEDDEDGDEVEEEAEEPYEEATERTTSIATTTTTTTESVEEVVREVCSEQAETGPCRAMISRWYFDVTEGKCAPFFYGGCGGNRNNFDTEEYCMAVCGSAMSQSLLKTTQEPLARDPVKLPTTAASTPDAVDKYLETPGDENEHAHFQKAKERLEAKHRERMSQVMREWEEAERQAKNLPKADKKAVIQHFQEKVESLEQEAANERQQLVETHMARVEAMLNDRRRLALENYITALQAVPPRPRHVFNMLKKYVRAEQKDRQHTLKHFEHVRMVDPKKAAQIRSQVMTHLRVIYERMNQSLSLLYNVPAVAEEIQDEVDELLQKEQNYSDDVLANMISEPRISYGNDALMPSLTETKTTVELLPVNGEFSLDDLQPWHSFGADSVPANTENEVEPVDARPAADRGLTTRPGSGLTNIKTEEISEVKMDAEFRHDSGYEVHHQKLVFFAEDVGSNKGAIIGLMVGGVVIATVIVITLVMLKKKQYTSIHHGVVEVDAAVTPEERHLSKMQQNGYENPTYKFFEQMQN

[4] = Acute toxicity in Wistar rat assessed as maximum tolerated dose administered orally for 14 days; conditions: in vivo, route po, time 14 day
[5] = Acute toxicity in Wistar rat assessed as effect on heart tissue at 500 to 1000 mg/kg, po administered for 14 days by histopathological analysis; type: organism-based; conditions: in vivo, 336 h, dose 500-1000 mg/kg, time 14 day
[6] = test system: Rattus norvegicus; assay: Reversal of amyloid beta (1 to 42 residues) induced cognitive impairment in Wistar rat assessed as decrease in BACE-1 protein level at 10 mg/kg, po pretreated with amyloid beta for 7 days followed by compound administration for 9 days and measured after 5 days by Western blot analysis; type: functional, organism-based; conditions: time 14.0 day

Acetylcholinesterase, sequence (P22303 whole entry): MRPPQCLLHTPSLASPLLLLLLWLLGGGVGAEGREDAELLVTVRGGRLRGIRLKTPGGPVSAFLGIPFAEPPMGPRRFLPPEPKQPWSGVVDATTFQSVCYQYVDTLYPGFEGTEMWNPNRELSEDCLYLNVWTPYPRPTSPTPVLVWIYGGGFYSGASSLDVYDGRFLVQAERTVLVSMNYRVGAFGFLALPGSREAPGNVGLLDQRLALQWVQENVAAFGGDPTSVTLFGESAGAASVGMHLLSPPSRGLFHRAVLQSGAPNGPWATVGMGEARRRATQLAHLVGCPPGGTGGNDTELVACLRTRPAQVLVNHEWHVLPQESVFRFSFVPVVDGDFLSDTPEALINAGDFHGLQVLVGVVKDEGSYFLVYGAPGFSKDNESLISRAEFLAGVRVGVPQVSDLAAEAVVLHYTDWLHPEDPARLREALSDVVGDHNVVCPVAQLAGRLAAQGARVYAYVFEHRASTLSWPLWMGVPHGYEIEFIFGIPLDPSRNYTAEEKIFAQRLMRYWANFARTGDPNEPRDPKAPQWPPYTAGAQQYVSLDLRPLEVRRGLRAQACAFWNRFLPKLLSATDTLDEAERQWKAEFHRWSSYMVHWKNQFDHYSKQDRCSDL

With `COc1cc(NC(=O)Cn2nc(-c3ccccc3)c(-c3ccccc3)nc2=O)cc(OC)c1` the Kd [1] was 412 nM, the Activity [2] was “Non-Toxic” and the inhibition [3] was “Active”. For the same molecule, the MTD at 336 h [4] was 1000 mg/kg, the Activity [5] was “Non-Toxic” and the Activity [6] was “Active”.

Source: ChEMBL document CHEMBL5500364, “Design, synthesis, and biological evaluation of some 2-(3-oxo-5,6-diphenyl-1,2,4-triazin-2(3H)-yl)-N-phenylacetamide hybrids as MTDLs for Alzheimer's disease therapy” (Eur J Med Chem, 2024)
